Converted amounts (≈) assume the structure as drawn.
Experiments:
Format in all cases: functional
[1] = test system: Staphylococcus aureus; test: Antibacterial activity against methicillin-resistant Staphylococcus aureus DB-00026
[2] = test system: Staphylococcus aureus; test: Antibacterial activity against Staphylococcus aureus FDA 209P
[3] = test system: Staphylococcus aureus; test: Antibacterial activity against linezolid-resistant Staphylococcus aureus O-128
[4] = test system: Staphylococcus aureus; test: Antibacterial activity against methicillin-resistant Staphylococcus aureus 1201984
[5] = test system: Staphylococcus epidermidis; test: Antibacterial activity against Staphylococcus epidermidis ATCC 12228
[6] = test system: Escherichia coli; test: Antibacterial activity against TolC-deficient Escherichia coli
[7] = test system: Staphylococcus aureus; test: Antibacterial activity against methicillin-resistant Staphylococcus aureus 562
[8] = test system: Staphylococcus aureus; test: Antibacterial activity against PVL positive Staphylococcus aureus
[9] = test system: Staphylococcus aureus; test: Antibacterial activity against […] Staphylococcus aureus ATCC 13709 SMITH
[10] = test system: Staphylococcus aureus; test: Antibacterial activity against Staphylococcus aureus Mu50 ATCC 700699
[11] = test system: Staphylococcus epidermidis; test: Antibacterial activity against linezolid-resistant Staphylococcus epidermidis 1117174
[12] = test system: Staphylococcus aureus; test: Antibacterial activity against methicillin-resistant Staphylococcus aureus USA300 BAA-1556
[13] = test system: Staphylococcus epidermidis; test: Antibacterial activity against methicillin-resistant Staphylococcus epidermidis ATCC 35984
[14] = test system: Escherichia coli; test: Antibacterial activity against Escherichia coli MG1655; conditions: K-12 substr. MG1655
[15] = test system: Staphylococcus aureus; test: Antibacterial activity against Staphylococcus aureus ATCC 29213
[16] = test system: Staphylococcus epidermidis; test: Antibacterial activity against linezolid-resistant Staphylococcus epidermidis 1089191

Compound | MIC [1] [µg/mL] | MIC [2] [µg/mL] | MIC [3] [µg/mL] | MIC [4] [µg/mL] | MIC [5] [µg/mL] | MIC [6] [µg/mL] | MIC [7] [µg/mL] | MIC [8] [µg/mL] | MIC [9] [µg/mL] | MIC [10] [µg/mL] | MIC [11] [µg/mL] | MIC [12] [µg/mL] | MIC [13] [µg/mL] | MIC [14] [µg/mL] | MIC [15] [µg/mL] | MIC [16] [µg/mL]
CCOC(=O)NC[C@H]1CN(c2ccc(-c3ccc4c(c3)CC3(C(=O)NC(=O)NC3=O)C3CCCN43)c(F)c2)C(=O)O1 (stereo partly drawn) | 8 (≈ 14.1 µM) | 8 (≈ 14.1 µM) | 32 (≈ 56.6 µM) | 8 (≈ 14.1 µM) | 4 (≈ 7.07 µM) | 8 (≈ 14.1 µM) | 4 (≈ 7.07 µM) | 8 (≈ 14.1 µM) | > 32 | 4 (≈ 7.07 µM) | > 32 | 8 (≈ 14.1 µM) | 4 (≈ 7.07 µM) | > 32 | 8 (≈ 14.1 µM) | > 32
CCC(=O)NC[C@H]1CN(c2ccc(-c3ccc4c(c3)CC3(C(=O)NC(=O)NC3=O)C3COCCN43)c(F)c2)C(=O)O1 (stereo partly drawn) | 16 (≈ 28.3 µM) | 16 (≈ 28.3 µM) | 32 (≈ 56.6 µM) | 16 (≈ 28.3 µM) | 4 (≈ 7.07 µM) | 4 (≈ 7.07 µM) | 4 (≈ 7.07 µM) | 16 (≈ 28.3 µM) | > 32 | 4 (≈ 7.07 µM) | 32 (≈ 56.6 µM) | 16 (≈ 28.3 µM) | 4 (≈ 7.07 µM) | > 32 | 8 (≈ 14.1 µM) | > 32
CC(=O)NC[C@H]1CN(c2ccc(-c3ccc4c(c3)CC3(C(=O)NNC3=O)C3CCCN43)c(F)c2)C(=O)O1 (stereo partly drawn) | 8 (≈ 15.8 µM) | 16 (≈ 31.5 µM) | 32 (≈ 63.1 µM) | 16 (≈ 31.5 µM) | 8 (≈ 15.8 µM) | 16 (≈ 31.5 µM) | 8 (≈ 15.8 µM) | 16 (≈ 31.5 µM) | > 32 | 4 (≈ 7.88 µM) | > 32 | 8 (≈ 15.8 µM) | 4 (≈ 7.88 µM) | > 32 | 8 (≈ 15.8 µM) | > 32
CC(=O)NC[C@H]1CN(c2ccc(-c3ccc4c(c3)CC3(C(=O)NC(=O)NC3=O)C3COCCN43)c(F)c2)C(=O)O1 (stereo partly drawn) | 8 (≈ 14.5 µM) | 8 (≈ 14.5 µM) | 32 (≈ 58 µM) | 16 (≈ 29 µM) | 4 (≈ 7.25 µM) | 2 (≈ 3.63 µM) | 4 (≈ 7.25 µM) | 8 (≈ 14.5 µM) | 32 (≈ 58 µM) | 4 (≈ 7.25 µM) | 32 (≈ 58 µM) | 8 (≈ 14.5 µM) | 2 (≈ 3.63 µM) | > 32 | 4 (≈ 7.25 µM) | > 32
CS(=O)(=O)NC[C@H]1CN(c2ccc(-c3ccc4c(c3)CC3(C(=O)NC(=O)NC3=O)C3CCCN43)c(F)c2)C(=O)O1 (stereo partly drawn) | 16 (≈ 28 µM) | 16 (≈ 28 µM) | 32 (≈ 56 µM) | 8 (≈ 14 µM) | 8 (≈ 14 µM) | 16 (≈ 28 µM) | 8 (≈ 14 µM) | 8 (≈ 14 µM) | > 32 | 8 (≈ 14 µM) | 32 (≈ 56 µM) | 16 (≈ 28 µM) | 4 (≈ 7 µM) | > 32 | 16 (≈ 28 µM) | > 32
COC(=O)NC[C@H]1CN(c2ccc(-c3ccc4c(c3)CC3(C(=O)NC(=O)NC3=O)C3COCCN43)c(F)c2)C(=O)O1 (stereo partly drawn) | 8 (≈ 14.1 µM) | 8 (≈ 14.1 µM) | 32 (≈ 56.4 µM) | 16 (≈ 28.2 µM) | 4 (≈ 7.05 µM) | 4 (≈ 7.05 µM) | 4 (≈ 7.05 µM) | 8 (≈ 14.1 µM) | > 32 | 4 (≈ 7.05 µM) | 32 (≈ 56.4 µM) | 8 (≈ 14.1 µM) | 2 (≈ 3.52 µM) | > 32 | 4 (≈ 7.05 µM) | > 32
CCC(=O)NC[C@H]1CN(c2ccc(-c3ccc4c(c3)CC3(C(=O)NC(=O)NC3=O)C3CCCN43)c(F)c2)C(=O)O1 (stereo partly drawn) | 8 (≈ 14.6 µM) | 8 (≈ 14.6 µM) | 32 (≈ 58.2 µM) | 8 (≈ 14.6 µM) | 8 (≈ 14.6 µM) | 8 (≈ 14.6 µM) | 4 (≈ 7.28 µM) | 8 (≈ 14.6 µM) | 32 (≈ 58.2 µM) | 8 (≈ 14.6 µM) | 32 (≈ 58.2 µM) | 16 (≈ 29.1 µM) | 4 (≈ 7.28 µM) | > 32 | 16 (≈ 29.1 µM) | > 32
O=C1O[C@@H](CO)CN1c1ccc2c(c1)CC1(C(=O)NNC1=O)C1COCCN21 (stereo partly drawn) | > 32 | > 32 | > 32 | > 32 | > 32 | > 32 | > 32 | > 32 | > 32 | > 32 | 32 (≈ 82.4 µM) | > 32 | > 32 | > 32 | > 32 | > 32
CCOC(=O)NC[C@H]1CN(c2ccc(-c3ccc4c(c3)CC3(C(=O)NC(=O)NC3=O)C3COCCN43)c(F)c2)C(=O)O1 (stereo partly drawn) | 16 (≈ 27.5 µM) | 16 (≈ 27.5 µM) | > 32 | 32 (≈ 55 µM) | 8 (≈ 13.8 µM) | 8 (≈ 13.8 µM) | 8 (≈ 13.8 µM) | 32 (≈ 55 µM) | > 32 | 8 (≈ 13.8 µM) | 32 (≈ 55 µM) | 16 (≈ 27.5 µM) | 8 (≈ 13.8 µM) | > 32 | 16 (≈ 27.5 µM) | > 32
CS(=O)(=O)NC[C@H]1CN(c2ccc(-c3ccc4c(c3)CC3(C(=O)NC(=O)NC3=O)C3COCCN43)c(F)c2)C(=O)O1 (stereo partly drawn) | 32 (≈ 54.5 µM) | 32 (≈ 54.5 µM) | > 32 | 32 (≈ 54.5 µM) | 16 to 32 (≈ 27.2 to 54.5 µM) | 32 (≈ 54.5 µM) | 32 (≈ 54.5 µM) | 32 (≈ 54.5 µM) | > 32 | 16 (≈ 27.2 µM) | > 32 | 32 (≈ 54.5 µM) | 16 to 32 (≈ 27.2 to 54.5 µM) | > 32 | 32 (≈ 54.5 µM) | > 32
O=C1NC(=O)C2(Cc3cc(N4C[C@H](CO)OC4=O)ccc3N3CCOCC32)C(=O)N1 (stereo partly drawn) | > 32 | > 32 | > 32 | > 32 | > 32 | > 32 | > 32 | > 32 | > 32 | > 32 | 32 (≈ 76.9 µM) | > 32 | > 32 | > 32 | > 32 | > 32
CC(=O)NC[C@H]1CN(c2ccc3c(c2)CC2(C(=O)NC(=O)NC2=O)C2COCCN32)C(=O)O1 (stereo partly drawn) | > 32 | > 32 | > 32 | > 32 | > 32 | > 32 | > 32 | > 32 | > 32 | > 32 | 32 (≈ 70 µM) | > 32 | > 32 | > 32 | > 32 | > 32
COC(=O)C1(C(=O)OC)Cc2cc(-c3ccc(N4C[C@H](CO)OC4=O)cc3F)ccc2N2CCOCC21 (stereo partly drawn) | 16 (≈ 31.1 µM) | 16 (≈ 31.1 µM) | > 32 | 8 (≈ 15.5 µM) | 8 (≈ 15.5 µM) | 16 (≈ 31.1 µM) | 8 (≈ 15.5 µM) | 8 (≈ 15.5 µM) | > 32 | 16 (≈ 31.1 µM) | > 32 | 16 (≈ 31.1 µM) | 8 (≈ 15.5 µM) | > 32 | 16 (≈ 31.1 µM) | > 32
O=C1O[C@@H](CO)CN1c1ccc(-c2ccc3c(c2)CC2(C(=O)NNC2=O)C2CCCN32)c(F)c1 (stereo partly drawn) | 8 to 16 (≈ 17.2 to 34.3 µM) | 32 (≈ 68.6 µM) | > 32 | > 32 | 2 to 32 (≈ 4.29 to 68.6 µM) | > 32 | 2 to 32 (≈ 4.29 to 68.6 µM) | > 32 | ≥ 32 | 16 (≈ 34.3 µM) | ≥ 32 | 32 (≈ 68.6 µM) | – | > 32 | 4 to 32 (≈ 8.58 to 68.6 µM) | > 32

— ChEMBL document CHEMBL4219129, “Design, synthesis and biological evaluation of spiropyrimidinetriones oxazolidinone derivatives as antibacterial agents” (2018)
